Test results reported in US5556744A, “Methods and compositions for diagnosing and treating certain HIV infected patients” (The Trustees of the University of Pennsylvania, priority 1994, dated 1996).

System: maternal HIV+ sera (antibodies)
Assay: RIA / ELISA binding of maternal HIV+ sera to gp120 and gp41 peptides (Example 3)
Set-up: species or system human
Experimental: Radioimmunoassay (RIA) and enzyme-linked immunosorbent assay (ELISA) were performed by standard methodologies [E. Engvall, Meth. Immunol., 70:419-439 (1980); S. K. Pierce et al, J. Exp. Med., 144:1254-1262 (1976)]. Peptides were dissolved in 0.05M carbonate-bicarbonate buffer (pH 9.6) at a concentration of 10 μg/ml. Fifty μl (500 ng) of the peptides were immobilized in 96 well polyvinylchloride plates (Dynatech Laboratories, Inc.) overnight at 4° C. Plates were washed and non-specific sites were blocked with PBS containing 1% BSA overnight at 4° C.
Dilutions of HIV positive maternal sera were made in blocking buffer at dilutions of 1:50 and 1:500 and incubated in peptide coated plates overnight at 4° C. Plates were washed with PBS and incubated with 75,000 cpm of ^125 I-labelled goat anti-human IgG. The antibody was iodinated by a chloramine T method [W. V. Williams et al, Proc. Natl. Acad. Sci. USA, 85:6488-6492 (1988)]. Plates were washed, dried and counted in a gamma counter to measure specific binding. Normal human serum (i.e., HIV seronegative) was used as a control.
Alternatively, ELISA assays were performed in polystyrene plates (Dynatech Laboratories, Inc) in which 0.05% Tween 20 (Sigma Chemical Co.) was included in the washing, blocking and dilution buffers. The secondary antibody used was goat […] Ig conjugated to horseradish peroxidase (HRP) (Sigma Chemical Co). The substrate used for color development was 3,3',5,5' tetramethyl-benzidine dihydrochloride (TMB) (Sigma Chemical Co). Absorbance of samples was measured in a Dynatech MR5000 (Dynatech Laboratories, Inc.) plate reader and expressed as an optical density at wavelength of 450 nm (OD450).
The following key is used for the designation of specific binding of the maternal sera samples to the peptides: The minus sign, -, is equivalent to the specific OD450 or cpm of sera sample binding to peptide divided by the specific OD450 or cpm of NHS sample binding to peptide, which value is less than 2. The plus sign, +, is equivalent to the specific OD450 or cpm of sera sample binding to peptide divided by the specific OD450 or cpm of NHS sample binding to peptide, which value is between 2 to 3.
Specific binding is defined as the difference between the OD450 or cpm of sera to wells with peptide and the OD450 or cpm of sera to wells without peptide.
Comparisons of number of peptides which bound maternal serum samples were made between the transmission group and the nontransmission group. The data was analyzed using the unpaired student's test. For the determination of differences in the binding of specific peptides between transmission and non-transmission groups, the Spearman's rank-order correlation test was performed.

ASWSNKSLEQIWNNM [Peptide 36]
Binding of maternal HIV+ serum to peptide (sera/NHS ratio) (Serum No. 1, Non-Transmission Group): - (specific OD450 or cpm of sera sample binding to peptide divided by the specific OD450 or cpm of NHS sample binding to peptide, which value is less than 2) | Binding of maternal HIV+ serum to peptide (sera/NHS ratio) (Serum No. 2, Non-Transmission Group): - (specific OD450 or cpm of sera sample binding to peptide divided by the specific OD450 or cpm of NHS sample binding to peptide, which value is less than 2) | Binding of maternal HIV+ serum to peptide (sera/NHS ratio) (Serum No. 3, Non-Transmission Group): - (specific OD450 or cpm of sera sample binding to peptide divided by the specific OD450 or cpm of NHS sample binding to peptide, which value is less than 2) | Binding of maternal HIV+ serum to peptide (sera/NHS ratio) (Serum No. 4, Transmission Group): - (specific OD450 or cpm of sera sample binding to peptide divided by the specific OD450 or cpm of NHS sample binding to peptide, which value is less than 2) | Binding of maternal HIV+ serum to peptide (sera/NHS ratio) (Serum No. 5, Transmission Group): - (specific OD450 or cpm of sera sample binding to peptide divided by the specific OD450 or cpm of NHS sample binding to peptide, which value is less than 2) | Binding of maternal HIV+ serum to peptide (sera/NHS ratio) (Serum No. 6, Non-Transmission Group): - (specific OD450 or cpm of sera sample binding to peptide divided by the specific OD450 or cpm of NHS sample binding to peptide, which value is less than 2) | Binding of maternal HIV+ serum to peptide (sera/NHS ratio) (Serum No. 7, Non-Transmission Group): - (specific OD450 or cpm of sera sample binding to peptide divided by the specific OD450 or cpm of NHS sample binding to peptide, which value is less than 2) | Binding of maternal HIV+ serum to peptide (sera/NHS ratio) (Serum No. 8, Non-Transmission Group): - (specific OD450 or cpm of sera sample binding to peptide divided by the specific OD450 or cpm of NHS sample binding to peptide, which value is less than 2) | Binding of maternal HIV+ serum to peptide (sera/NHS ratio) (Serum No. 9, Non-Transmission Group): - (specific OD450 or cpm of sera sample binding to peptide divided by the specific OD450 or cpm of NHS sample binding to peptide, which value is less than 2) | Binding of maternal HIV+ serum to peptide (sera/NHS ratio) (Serum No. 10, Transmission Group): - (specific OD450 or cpm of sera sample binding to peptide divided by the specific OD450 or cpm of NHS sample binding to peptide, which value is less than 2) | Binding of maternal HIV+ serum to peptide (sera/NHS ratio) (Serum No. 11, Non-Transmission Group): - (specific OD450 or cpm of sera sample binding to peptide divided by the specific OD450 or cpm of NHS sample binding to peptide, which value is less than 2) | Binding of maternal HIV+ serum to peptide (sera/NHS ratio) (Serum No. 12, Non-Transmission Group): - (specific OD450 or cpm of sera sample binding to peptide divided by the specific OD450 or cpm of NHS sample binding to peptide, which value is less than 2) | Binding of maternal HIV+ serum to peptide (sera/NHS ratio) (Serum No. 13, Transmission Group): - (specific OD450 or cpm of sera sample binding to peptide divided by the specific OD450 or cpm of NHS sample binding to peptide, which value is less than 2) | Binding of maternal HIV+ serum to peptide (sera/NHS ratio) (Serum No. 14, Transmission Group): - (specific OD450 or cpm of sera sample binding to peptide divided by the specific OD450 or cpm of NHS sample binding to peptide, which value is less than 2) | Binding of maternal HIV+ serum to peptide (sera/NHS ratio) (Serum No. 15, Transmission Group): - (specific OD450 or cpm of sera sample binding to peptide divided by the specific OD450 or cpm of NHS sample binding to peptide, which value is less than 2) | Binding of maternal HIV+ serum to peptide (sera/NHS ratio) (Serum No. 16, Non-Transmission Group): - (specific OD450 or cpm of sera sample binding to peptide divided by the specific OD450 or cpm of NHS sample binding to peptide, which value is less than 2) | Binding of maternal HIV+ serum to peptide (sera/NHS ratio) (Serum No. 17, Non-Transmission Group): - (specific OD450 or cpm of sera sample binding to peptide divided by the specific OD450 or cpm of NHS sample binding to peptide, which value is less than 2) | Binding of maternal HIV+ serum to peptide (sera/NHS ratio) (Serum No. 18, Non-Transmission Group): - (specific OD450 or cpm of sera sample binding to peptide divided by the specific OD450 or cpm of NHS sample binding to peptide, which value is less than 2) | Binding of maternal HIV+ serum to peptide (sera/NHS ratio) (Serum No. 19, Transmission Group): - (specific OD450 or cpm of sera sample binding to peptide divided by the specific OD450 or cpm of NHS sample binding to peptide, which value is less than 2) | Binding of maternal HIV+ serum to peptide (sera/NHS ratio) (Serum No. 20, Non-Transmission Group): - (specific OD450 or cpm of sera sample binding to peptide divided by the specific OD450 or cpm of NHS sample binding to peptide, which value is less than 2)
